Source: patent US20260365647A1, “AKT1 MODULATORS” (Alterome Therapeutics, Inc., priority 2022, published 2026)

Target: T1, AKT1-E17K (Homo sapiens, UniProt P31749, E17K)
T1 construct: host or cells: HEK-293 (ATCC CRL-1573)
Test: NanoBRET Target Engagement (TE) Assay
Assay type: cell-based
Procedure, shortened: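 Live cells transiently expressing NanoLuc-AKT1 E17K fusion, incubated 2 h with tracer and compound before substrate plus extracellular NanoLuc inhibitor were added. BRET read at 450/600 nm; EC50 from variable-slope sigmoidal fit of tracer displacement.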

T1 sequence (P31749 whole entry E17K): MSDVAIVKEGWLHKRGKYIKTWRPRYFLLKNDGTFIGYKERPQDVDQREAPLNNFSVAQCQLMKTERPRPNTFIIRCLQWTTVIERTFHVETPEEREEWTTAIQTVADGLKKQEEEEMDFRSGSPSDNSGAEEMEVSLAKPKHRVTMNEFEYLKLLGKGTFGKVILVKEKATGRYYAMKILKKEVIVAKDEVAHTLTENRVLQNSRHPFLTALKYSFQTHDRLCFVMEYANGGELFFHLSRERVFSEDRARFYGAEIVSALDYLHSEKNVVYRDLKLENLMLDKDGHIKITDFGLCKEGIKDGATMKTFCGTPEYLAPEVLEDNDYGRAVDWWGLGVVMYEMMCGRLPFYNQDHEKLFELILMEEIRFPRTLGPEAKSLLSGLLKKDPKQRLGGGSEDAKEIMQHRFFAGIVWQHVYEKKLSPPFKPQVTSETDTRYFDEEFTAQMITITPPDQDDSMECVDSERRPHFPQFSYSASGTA

SMILES	IC50 [nM]
Nc1ncccc1-c1nc2ccc(-c3ccccc3)nc2n1-c1ccc(CN2CC[C@@H](NC(=O)c3ccc(C=O)c(O)c3)C2)cc1 [Example 64, (R)—N-(1-(4-(2-(2-Aminopyridin-3-yl)-5-phenyl-3H-imidazo[4,5-b]pyridin-3-yl)benzyl)pyrrolidin-3-yl)-4-formyl-3-hydroxybenzamide]	60 to 600
Nc1ncccc1-c1nc2ccc(-c3ccccc3)nc2n1-c1ccc(CN2C[C@@H]3CN(C(=O)c4ccc(C=O)c(O)c4)C[C@@H]3C2)cc1 [Example 132, 4-((3aR,6aS)-5-(4-(2-(2-Aminopyridin-3-yl)-5-phenyl-3H-imidazo[4,5-b]pyridin-3-yl)benzyl)octahydropyrrolo[3,4-c]pyrrole-2-carbonyl)-2-hydroxybenzaldehyde]	60 to 600
Nc1ncccc1-c1nc2ccc(-c3ccccc3)nc2n1-c1ccc(CN2CCN(c3ccc(C=O)c(O)c3)C3(CC3)C2)cc1 [Example 108, 4-(7-(4-(2-(2-Aminopyridin-3-yl)-5-phenyl-3H-imidazo[4,5-b]pyridin-3-yl)benzyl)-4,7-diazaspiro[2.5]octan-4-yl)-2-hydroxybenzaldehyde]	60 to 600
Nc1ncccc1-c1nc2ccc(N3CCOCC3)nc2n1-c1ccc(CN2CCN(C(=O)c3ccc(O)c(C=O)c3)CC2)cc1 [Example 32, 5-(4-(4-(2-(2-Aminopyridin-3-yl)-5-morpholino-3H-imidazo[4,5-b]pyridin-3-yl)benzyl)piperazine-1-carbonyl)-2-hydroxybenzaldehyde]	> 600
Nc1ncccc1-c1nc2ccc(-c3ccc(Cl)cc3)nc2n1-c1ccc(CN2CCN(C(=O)c3ccc(C=O)c(O)c3)CC2)cc1 [Example 148, 4-(4-(4-(2-(2-aminopyridin-3-yl)-5-(4-chlorophenyl)-3H-imidazo[4,5-b]pyridin-3-yl)benzyl)piperazine-1-carbonyl)-2-hydroxybenzaldehyde]	> 600
Nc1ncccc1-c1nc2ccc(-c3cccc(Cl)c3)nc2n1-c1ccc(CN2CCN(C(=O)c3ccc(C=O)c(O)c3)CC2)cc1 [Example 43, 4-(4-(4-(2-(2-Aminopyridin-3-yl)-5-(3-chlorophenyl)-3H-imidazo[4,5-b]pyridin-3-yl)benzyl)piperazine-1-carbonyl)-2-hydroxybenzaldehyde]	60 to 600
Nc1ncccc1-c1nc2ccc(-c3ccccc3)nc2n1-c1ccc(CN2CC3(CCN(C(=O)c4ccc(C=O)c(O)c4)C3)C2)cc1 [Example 93, 4-(2-(4-(2-(2-Aminopyridin-3-yl)-5-phenyl-3H-imidazo[4,5-b]pyridin-3-yl)benzyl)-2,6-diazaspiro[3.4]octane-6-carbonyl)-2-hydroxybenzaldehyde]	60 to 600
Nc1ncccc1-c1nc2ccc(-c3ccccc3)nc2n1-c1ccc(CN2CC[C@]3(CCN(C(=O)c4ccc(C=O)c(O)c4)C3)C2)cc1 [Example 102, (S)-4-(7-(4-(2-(2-Aminopyridin-3-yl)-5-phenyl-3H-imidazo[4,5-b]pyridin-3-yl)benzyl)-2,7-diazaspiro[4.4]nonane-2-carbonyl)-2-hydroxybenzaldehyde]	60 to 600

The remaining lines, values ahead:

IC50 [nM]	SMILES
60 to 600	Nc1ncccc1-c1nc2ccc(-c3ccccc3)nc2n1-c1ccc(CN2CCC(Nc3ccc(C=O)c(O)c3)CC2)cc1 [Example 47, 4-((1-(4-(2-(2-Aminopyridin-3-yl)-5-phenyl-3H-imidazo[4,5-b]pyridin-3-yl)benzyl)piperidin-4-yl)amino)-2-hydroxybenzaldehyde]
60 to 600	Nc1ncccc1-c1nc2ccc(-c3ccccc3)nc2n1-c1ccc(CN2CCC(Oc3ccc(O)c(C=O)c3)CC2)cc1 [Example 130, 5-((1-(4-(2-(2-Aminopyridin-3-yl)-5-phenyl-3H-imidazo[4,5-b]pyridin-3-yl)benzyl)piperidin-4-yl)oxy)-2-hydroxybenzaldehyde]
60 to 600	Nc1ncccc1-c1nc2ccc(-c3ccccc3)nc2n1-c1ccc(CN2CCC3(CCN(C(=O)c4ccc(O)c(C=O)c4)CC3)C2)cc1 [Example 84, 5-(2-(4-(2-(2-Aminopyridin-3-yl)-5-phenyl-3H-imidazo[4,5-b]pyridin-3-yl)benzyl)-2,8-diazaspiro[4.5]decane-8-carbonyl)-2-hydroxybenzaldehyde]
60 to 600	Nc1ncccc1-c1nc2ccc(-c3ccccc3)nc2n1-c1ccc(CN2C[C@@H]3C[C@H]2CN3c2ccc(C=O)c(O)c2)cc1 [Example 123, 4-((1S,4S)-5-(4-(2-(2-Aminopyridin-3-yl)-5-phenyl-3H-imidazo[4,5-b]pyridin-3-yl)benzyl)-2,5-diazabicyclo[2.2.1]heptan-2-yl)-2-hydroxybenzaldehyde]
60 to 600	Nc1ncccc1-c1nc2ccc(-c3ccccc3)nc2n1-c1ccc(CN2CCC3(CCN(c4ccc(O)c(C=O)c4)C3)C2)cc1 (stereo not shown) [Example 83, 5-(7-(4-(2-(2-Aminopyridin-3-yl)-5-phenyl-3H-imidazo[4,5-b]pyridin-3-yl)benzyl)-2,7-diazaspiro[4.4]nonan-2-yl)-2-hydroxybenzaldehyde]
15 to 60	Nc1ncccc1-c1nc2ccc(-c3ccccc3)nc2n1-c1ccc(CN2CC[C@@]3(CCN(C(=O)c4ccc(O)c(C=O)c4)C3)C2)cc1 [Example 98, (R)-5-(7-(4-(2-(2-aminopyridin-3-yl)-5-phenyl-3H-imidazo[4,5-b]pyridin-3-yl)benzyl)-2,7-diazaspiro[4.4]nonane-2-carbonyl)-2-hydroxybenzaldehyde]
60 to 600	Nc1ncccc1-c1nc2ccc(-c3ccccc3)nc2n1-c1ccc(CN2CC[C@]3(CCN(c4ccc(C=O)c(O)c4)C3)C2)cc1 [Example 103, (S)-4-(7-(4-(2-(2-Aminopyridin-3-yl)-5-phenyl-3H-imidazo[4,5-b]pyridin-3-yl)benzyl)-2,7-diazaspiro[4.4]nonan-2-yl)-2-hydroxybenzaldehyde]
< 15	Nc1ncccc1-c1nc2ccc(-c3ccccc3)nc2n1-c1ccc(CN2CCC(NC(=O)c3ccc(O)c(C=O)c3)CC2)cc1 [Example 7, N-(1-(4-(2-(2-Aminopyridin-3-yl)-5-phenyl-3H-imidazo[4,5-b]pyridin-3-yl)benzyl)piperidin-4-yl)-3-formyl-4-hydroxybenzamide]
60 to 600	Nc1ncccc1-c1nc2ccc(-c3ccccc3)nc2n1-c1ccc(CN2CCN(C(=O)c3ccc(O)c(C=O)c3)CC2)cc1 [Example 5, 5-(4-(4-(2-(2-Aminopyridin-3-yl)-5-phenyl-3H-imidazo[4,5-b]pyridin-3-yl)benzyl)piperazine-1-carbonyl)-2-hydroxybenzaldehyde]
60 to 600	Nc1ncccc1-c1nc2ccc(-c3ccccc3)nc2n1-c1ccc(CN2CC3(C2)CN(C(=O)c2ccc(C=O)c(O)c2)C3)cc1 [Example 66, 4-(6-(4-(2-(2-Aminopyridin-3-yl)-5-phenyl-3H-imidazo[4,5-b]pyridin-3-yl)benzyl)-2,6-diazaspiro[3.3]heptane-2-carbonyl)-2-hydroxybenzaldehyde]
15 to 60	Nc1ncccc1-c1nc2ccc(-c3ccccc3)nc2n1-c1ccc(CN2CCC(Oc3ccc(C=O)c(O)c3)CC2)cc1 [Example 129, 4-((1-(4-(2-(2-Aminopyridin-3-yl)-5-phenyl-3H-imidazo[4,5-b]pyridin-3-yl)benzyl)piperidin-4-yl)oxy)-2-hydroxybenzaldehyde]
